Among the data in patent EP0760375A1, “ANTITUMOR INDOLOPYPROLOCARBAZOLE DERIVATIVE” (BANYU PHARMACEUTICAL CO., LTD., priority 1994, dated 1995) are ED75 and IC50 values, retold here.

Like-named read-outs stand apart in the source and are kept apart here.

Assay [1] deals with human gastric cancer MKN-45. Kind of assay: Effect on human gastric cancer MKN-45 solid tumor transplanted under the skin of mice. In kind it is in vivo. Conditions: Mus musculus, MKN-45, iv, total dose at which tumor growth was inhibited by 75%, injection into the caudal vein, read-out: GID75 (mg/kg total). The procedure:
A MKN-45 solid tumor which had previously been grown by transplantation under the skin of a nude mouse was minced, and 3 mm cubes of the tumor were transplanted under the skin of mice used for this test. Starting from the time when the transplanted tumor grew to 0.3 cm^3, a treatment was carried out by injecting a dose of each test drug into the caudal vein of the mice, once a day, for 5 consecutive days and, after two days' pause, injecting the test drug for 5 days (treatment schedule: 5/w x 2) or four times at intervals of 3 or 4 days (treatment schedule: 2/w x 2). Twenty or thirty-two days after the start of the treatment, the larger diameter (L) and smaller diameter (W) of the tumor were measured, and its volume (V) was determined ( […] [formula] ). The degree of tumor growth inhibition was calculated from this volume, and the total dose at which the tumor growth was inhibited by 75% (GID75, mg/kg) was determined.

The test system of assay [2] is human pulmonary cancer cells (PC-13). The experiment in a line: Growth-inhibiting activity (CTX) against cancer cells, Thiazoyl Blue assay. It counts as cell-based. Conditions: PC-13 cells, 72 hours incubation with test compound, absorbance at 560 nm. The procedure: (§1) 50 µl of a cell culture medium (RPMI-1640 medium containing 10% bovine fetal serum) containing 1 x 10^3 mouse leukemia cells (P388), human gastric cancer cells (MKN-45), human pulmonary cancer cells (PC-13) or human rectal cancer cells (DLD-1) was pipetted into the wells of a 96-well microplate, and incubated at 37°C under 5% CO2 for 24 hours. Then, 50 µl of a test solution containing each test compound was added, and the culture medium was further incubated at 37°C under 5% CO2 for 72 hours. After 10 µl of 0.5% Thiazoyl Blue was added to the culture medium, an enzyme reaction was carried out by incubating the culture medium at 37°C under 5% CO2 for 2 hours. After the reaction was stopped by the addition of 20% sodium dodecyl sulfate (SDS), the culture medium was further incubated at 37°C for 16 hours to dissolve the pigment so formed. Then, the absorbances at 560 nm were measured and compared with that obtained in a control group. The compound of the formula [drawing 7] was used as the control compound.

The subject of assay [3] is human rectal cancer cells (DLD-1). Described as above. In kind it is cell-based. Conditions: DLD-1 cells, 72 hours incubation with test compound, absorbance at 560 nm. The protocol: as §1
The test system of assay [4] is mouse leukemia cells (P388). The assay is described as above. It counts as cell-based. Conditions: 72 hours incubation with test compound, absorbance at 560 nm. The procedure:
as §1

The test system of assay [5] is human gastric cancer cells (MKN-45). The description is as above. It counts as cell-based. The settings on record: MKN-45 cells, 72 hours incubation with test compound, absorbance at 560 nm. The procedure:
as §1

On to `O=C1c2c(c3c4cccc(O)c4n([C@@H]4O[C@H](CO)[C@@H](O)[C@H](O)[C@H]4O)c3c3[nH]c4c(O)cccc4c23)C(=O)N1NC(CO)CO` [Compound [I-A]], for which, in assay [1] (treatment schedule 5/w x 2), the ED75 is 27 mg/kg. Moreover, the concentration for half-maximal inhibition (IC50) in assay [2] came out at 0.34 µM; in assay [3], 0.67 µM; in assay [4] it was 0.037 µM; in assay [5] it was 0.29 µM.

For `O=CNN1C(=O)c2c(c3c4cccc(O)c4n([C@@H]4O[C@H](CO)[C@@H](O)[C@H](O)[C@H]4O)c3c3[nH]c4c(O)cccc4c23)C1=O` [Control compound, reference compound], the ED75 in assay [1] (treatment schedule 5/w x 2) turned out to be 170 mg/kg. For the same molecule, the IC50 was found to be 1.4 µM in assay [2], 73 µM in assay [3], 0.12 µM in assay [4] and 0.5 µM in assay [5].

For `O=C1c2c(c3c4ccc(O)cc4n([C@@H]4O[C@H](CO)[C@@H](O)[C@H](O)[C@H]4O)c3c3[nH]c4cc(O)ccc4c23)C(=O)N1NC(CO)CO` [Compound [I-B]], the ED75 in assay [1] (treatment schedule 2/w x 2) was 3 mg/kg. The IC50 in assay [2] amounted to 0.035 µM; in assay [3] it was 0.1 µM; in assay [4] it was 0.002 µM; in assay [5], 0.011 µM.
